Target: Indoleamine 2,3-dioxygenase 1 (Homo sapiens, UniProt P14902)
Experiment: Inhibition of IDO1 in IFN-gamma stimulated human HeLa cells incubated for 48 hrs by fluorescence microplate reader assay

Chain of Indoleamine 2,3-dioxygenase 1 (P14902 whole entry): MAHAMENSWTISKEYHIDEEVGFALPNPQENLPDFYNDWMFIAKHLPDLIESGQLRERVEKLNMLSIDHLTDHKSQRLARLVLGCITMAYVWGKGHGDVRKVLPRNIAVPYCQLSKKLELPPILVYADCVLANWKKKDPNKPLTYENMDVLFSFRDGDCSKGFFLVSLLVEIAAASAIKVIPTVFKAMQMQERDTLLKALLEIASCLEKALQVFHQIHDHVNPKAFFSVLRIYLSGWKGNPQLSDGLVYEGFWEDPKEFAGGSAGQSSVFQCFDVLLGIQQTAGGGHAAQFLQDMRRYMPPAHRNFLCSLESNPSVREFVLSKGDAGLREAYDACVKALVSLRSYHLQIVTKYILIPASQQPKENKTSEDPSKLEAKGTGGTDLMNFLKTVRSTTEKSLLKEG

| IC50 [nM] | Compound |
| --- | --- |
| 0.59 | CC(=O)NC1CCN(C(=O)c2nn(CC(=O)N3CCN(c4cccc(C)c4Cl)CC3)c3c2C2CCCCC2C3)CC1 (configuration not stated) |
| < 0.51 | Cc1cccc(N2CCN(C(=O)Cn3nc(C(=O)N4CCC5(CO)CC4C5)c4c3C[C@H]3C[C@@H]43)CC2)c1C |

— ChEMBL document CHEMBL4831552, “Novel Substituted Piperazine Amide Compounds as Indoleamine-2,3-dioxygenase (IDO) Inhibitors” (ACS Med Chem Lett, 2021)
